Literature values, collected in patent US20150086650A1 (priority 2012, published 2015).

Tests used:
[1] = rats

## CO/C=C(/C(=O)OC)c1ccccc1Oc1cc(Oc2ccccc2C#N)ncn1 [Azoxystrobin]
[1]
  acute oral LD50: more than 5,000 mg/kg
other
  inhalation toxicity classification: toxic by inhalation
